Here are results for 18 compounds from patent US20240368163A1, “COMPOUNDS AND METHODS FOR MODULATING SPLICING” (REMIX THERAPEUTICS INC., priority 2021, published 2024).

As a reminder, the IC50 is the concentration that gives 50% inhibition.

Holding throughout (assay type): cell-based, human
Experiment [1] concerns HTT. The experiment in a line: Splicing RT-qPCR assay, HTT mRNA canonical junction (CJ) and alternative junction (AJ). The settings on record: Homo sapiens, gene panel, CJ qPCR, protocol of Example 142; read-out: HTT IC50 (decrease in CJ mRNA levels). The method in brief: (§1)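 Splice switching is measured in A673 or K562 cells after 24 h compound exposure (maximum 10 uM, 3-fold steps). Canonical and alternative junction mRNA levels are quantified by RT-qPCR relative to housekeeper and DMSO.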

The subject of experiment [2] is Target C. Description: HiBiT protein abundance assay, Target C. Particulars: Homo sapiens, K562, 24 h, Table 13B, modified K562 cells. Put shortly: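 Target tagged with HiBiT by knock-in; 24 h dosing, 10 μM top final in 3-fold steps. IC50 from 4PL fit of normalized luminescence.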
Background: The HiBiT peptide binds its large partner to form an active luciferase.

Experiment [3] concerns HTT. The experiment in a line: HiBiT protein abundance assay, HTT. Particulars: Homo sapiens, K562, 24 h, Table 13B, modified K562 cells. Put shortly:
(§2)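 Tagged-target degradation assay: HiBiT-modified K562 cells treated 24 h with compound, 10 concentrations up to 10 μM final. Following lysis with LgBiT and substrate, luminescence gave normalized abundance; IC50 derived by logistic interpolation at 50%.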

In experiment [4] the test system is MYB. Description: HiBiT protein abundance assay, MYB. The settings on record: Homo sapiens, K562, 24 h, Table 13B, modified K562 cells. The method in brief:
as §2

A further experiment relates to SMN2. The experiment in a line: Splicing RT-qPCR panel, SMN2 canonical junction (CJ) mRNA. The settings on record: Homo sapiens, gene panel, CJ qPCR, protocol of Example 142; read-out: SMN2 IC50 (decrease in CJ mRNA levels). The method in brief: as §1
(Real-time PCR tracks product formation cycle by cycle.)

In experiment [5] the test system is Target C. Description: Splicing RT-qPCR panel, Target C canonical junction (CJ) mRNA. Particulars: Homo sapiens, gene panel, CJ qPCR, protocol of Example 142; read-out: Target C IC50 (decrease in CJ mRNA levels). Put shortly:
as §1

Experiment [6] concerns MYB. Description: Splicing RT-qPCR assay, MYB mRNA canonical junction (CJ) and alternative junction (AJ). Particulars: Homo sapiens, gene panel, CJ qPCR, protocol of Example 142; read-out: MYB IC50 (decrease in CJ mRNA levels). Put shortly: as §1

`COc1cc(-c2ccc(N3CCC(NC(C)(C)C)C3)nn2)ncc1-n1cccn1` (stereo not drawn) [Compound 972]: the concentration for half-maximal inhibition (IC50) in the experiment with HTT [1] fell in the range of 100 to 1000 nM; in the experiment with Target C [2], 1000 to 10000 nM; in the experiment on HTT [3], 100 to 1000 nM; with MYB [4] it was 1000 to 10000 nM; with SMN2, 100 to 1000 nM; in the experiment with Target C [5], 1000 to 10000 nM. Besides, the IC50 in the experiment on MYB [6] lay within 1000 to 10000 nM.
As for `COc1nc(-c2ccc(N(C)[C@@H]3C[C@H]4CC[C@@H](C3)N4)cn2)ccc1-c1cn[nH]c1` [Compound 978], the IC50 in the experiment on HTT [1] is > 10000 nM; in the experiment with Target C [2], > 10000 nM; in the experiment on HTT [3] it was 1000 to 10000 nM; in the experiment with MYB [4] it was 1000 to 10000 nM; with SMN2, > 10000 nM; with Target C [5] it was > 10000 nM. The IC50 in the experiment on MYB [6] is > 10000 nM.
Take `COc1nc(-c2ccc(N(C)[C@@H]3C[C@H]4CC[C@@H](C3)N4)nc2)ccc1-c1cn[nH]c1` [Compound 979]: the IC50 was < 100 nM in the experiment on HTT [1]; < 100 nM in the experiment on Target C [2]; < 100 nM in the experiment on HTT [3]; 100 to 1000 nM in the experiment with MYB [4]; < 100 nM in the experiment with SMN2; 100 to 1000 nM in the experiment on Target C [5]. The IC50 with MYB [6] fell in the range of 100 to 1000 nM.
For the compound `COc1nc(-c2cnc(N(C)[C@@H]3C[C@H]4CC[C@@H](C3)N4)cn2)ccc1-c1cn[nH]c1` [Compound 980], the IC50 with HTT [1] is 1000 to 10000 nM; in the experiment on Target C [2], 1000 to 10000 nM; in the experiment with HTT [3], 1000 to 10000 nM; with MYB [4], 1000 to 10000 nM; in the experiment on SMN2, > 10000 nM; with Target C [5], 1000 to 10000 nM. The IC50 in the experiment with MYB [6] was in the range of 1000 to 10000 nM.
For the compound `COc1nc(-c2cnc(N(C)[C@@H]3C[C@H]4CC[C@@H](C3)N4)nc2)ccc1-c1cn[nH]c1` [Compound 981], the 50% inhibitory concentration (IC50) in the experiment on HTT [1] is 100 to 1000 nM; in the experiment on Target C [2], 100 to 1000 nM; in the experiment with HTT [3], < 100 nM; in the experiment on MYB [4], 100 to 1000 nM; with SMN2, 100 to 1000 nM; in the experiment with Target C [5], 1000 to 10000 nM. Besides, the IC50 in the experiment on MYB [6] lay in the range of 1000 to 10000 nM.
With `COc1nc(-c2ccc(NC3CCNCC3)nc2)ccc1-c1cnn(C)c1` [Compound 986], the half-maximal inhibitory concentration (IC50) in the experiment on HTT [1] was 1000 to 10000 nM; in the experiment on Target C [2] it was 1000 to 10000 nM; in the experiment with HTT [3] it was 100 to 1000 nM; with MYB [4] it was 1000 to 10000 nM; in the experiment with SMN2, 100 to 1000 nM; in the experiment with Target C [5], 1000 to 10000 nM. In addition, the IC50 in the experiment with MYB [6] fell in the range of 1000 to 10000 nM.
Turning to `COc1nc(-c2ccc(NC3CCNCC3)nc2)ccc1-n1cccn1` [Compound 987], the 50% inhibitory concentration (IC50) in the experiment on HTT [1] is > 10000 nM; in the experiment with Target C [2], 1000 to 10000 nM; in the experiment with HTT [3], > 10000 nM; in the experiment on MYB [4], 1000 to 10000 nM; in the experiment with SMN2, 1000 to 10000 nM; in the experiment on Target C [5] it was > 10000 nM. In the experiment on MYB [6], the half-inhibitory concentration (IC50) is > 10000 nM.
For the compound `COc1nc(-c2ccc(NC3CCNCC3)nc2)ccc1-c1cnn(C)n1` [Compound 988], the IC50 with HTT [1] was 1000 to 10000 nM; with Target C [2], 1000 to 10000 nM; in the experiment on HTT [3], 1000 to 10000 nM; with MYB [4] it was 1000 to 10000 nM; in the experiment on SMN2, 100 to 1000 nM; in the experiment on Target C [5], > 10000 nM. In addition, the IC50 in the experiment on MYB [6] is > 10000 nM.
As to `COc1nc(-c2ccc(OC3CC(C)(C)NC(C)(C)C3)nc2)ccc1-c1cn[nH]c1` [Compound 989], the IC50 lay within 100 to 1000 nM with HTT [1]; 100 to 1000 nM with Target C [2]; 100 to 1000 nM in the experiment with HTT [3]; 1000 to 10000 nM in the experiment with MYB [4]; 100 to 1000 nM in the experiment on SMN2; 1000 to 10000 nM in the experiment on Target C [5]. Also, the IC50 with MYB [6] was in the range of 1000 to 10000 nM.
For the compound `COc1nc(-c2ccc(OC3CC(C)(C)NC(C)(C)C3)nc2)ccc1-n1cccn1` [Compound 991], the IC50 in the experiment with HTT [1] was > 10000 nM; in the experiment on Target C [2], 1000 to 10000 nM; in the experiment with HTT [3] it was 1000 to 10000 nM; with MYB [4], > 10000 nM; in the experiment with SMN2 it was > 10000 nM; in the experiment on Target C [5], > 10000 nM. Further, in the experiment on MYB [6], the IC50 was > 10000 nM.
For the compound `COc1nc(-c2ccc(OC3CC(C)(C)NC(C)(C)C3)nc2)ccc1-c1cnn(C)n1` [Compound 992], the IC50 in the experiment on HTT [1] is 1000 to 10000 nM; in the experiment with Target C [2], 1000 to 10000 nM; in the experiment with HTT [3], 100 to 1000 nM; with MYB [4], 1000 to 10000 nM; in the experiment with SMN2, 1000 to 10000 nM; in the experiment with Target C [5], > 10000 nM. In addition, the IC50 in the experiment on MYB [6] is > 10000 nM.
Consider `COc1nc(-c2ccc(N(C)C3CC(C)(C)NC(C)(C)C3)nc2)ccc1-c1cn[nH]c1` [Compound 993], for which the IC50 in the experiment on HTT [1] is < 100 nM; in the experiment with Target C [2], 100 to 1000 nM; with HTT [3] it was < 100 nM; in the experiment with MYB [4], 100 to 1000 nM; with SMN2, < 100 nM; in the experiment with Target C [5], 100 to 1000 nM. Further, in the experiment with MYB [6], the IC50 was in the range of 100 to 1000 nM.
As for `COc1nc(-c2ccc(N(C)C3CC(C)(C)NC(C)(C)C3)nc2)ccc1-c1cnn(C)c1` [Compound 994], the IC50 in the experiment with HTT [1] fell in the range of 100 to 1000 nM; in the experiment on Target C [2], 100 to 1000 nM; with HTT [3], 100 to 1000 nM; with MYB [4], 1000 to 10000 nM; in the experiment on SMN2, 1000 to 10000 nM; in the experiment with Target C [5], 100 to 1000 nM. Moreover, the IC50 in the experiment on MYB [6] was in the range of 100 to 1000 nM.
As for `COc1nc(-c2ccc(N(C)C3CC(C)(C)NC(C)(C)C3)nc2)ccc1-n1cccn1` [Compound 995], the IC50 is 1000 to 10000 nM in the experiment with HTT [1]; 1000 to 10000 nM in the experiment on Target C [2]; 1000 to 10000 nM in the experiment with HTT [3]; 1000 to 10000 nM with MYB [4]; 1000 to 10000 nM in the experiment on SMN2; > 10000 nM in the experiment with Target C [5]. The IC50 in the experiment with MYB [6] was > 10000 nM.
`COc1nc(-c2ccc(N(C)C3CC(C)(C)NC(C)(C)C3)nc2)ccc1-c1cnn(C)n1` [Compound 996]: the IC50 in the experiment on HTT [1] was in the range of 100 to 1000 nM; with Target C [2], 100 to 1000 nM; in the experiment on HTT [3] it was 100 to 1000 nM; in the experiment with MYB [4] it was 1000 to 10000 nM; in the experiment on SMN2 it was 100 to 1000 nM; in the experiment with Target C [5], 1000 to 10000 nM. Also, the IC50 in the experiment with MYB [6] is 1000 to 10000 nM.
For the compound `COc1nc(-c2ncc(N(C)[C@@H]3C[C@H]4CC[C@@H](C3)N4)cn2)ccc1-c1cn[nH]c1` [Compound 997], the IC50 in the experiment with HTT [1], in the experiment on Target C [2], with HTT [3], in the experiment with MYB [4], in the experiment on SMN2 and in the experiment on Target C [5] was > 10000 nM each time. In the experiment on MYB [6], the IC50 is > 10000 nM.
Take `COc1nc(-c2ccc(N3CCC(NC4CC4)C3)nn2)ccc1-c1cn[nH]c1` (stereo not drawn) [Compound 998]: the IC50 in the experiment with HTT [1] is 100 to 1000 nM; in the experiment on Target C [2], 1000 to 10000 nM; with HTT [3], 100 to 1000 nM; in the experiment on MYB [4], > 10000 nM; in the experiment with SMN2 it was 100 to 1000 nM; in the experiment with Target C [5], > 10000 nM. The IC50 with MYB [6] was > 10000 nM.
Regarding `COc1nc(-c2ccc(OC3CC(C)(C)NC(C)(C)C3)nn2)cnc1-c1cn[nH]c1` [Compound 999], the IC50 was 1000 to 10000 nM in the experiment on HTT [1]; > 10000 nM in the experiment on Target C [2]; 1000 to 10000 nM in the experiment on HTT [3]; 1000 to 10000 nM with MYB [4]; 100 to 1000 nM in the experiment with SMN2; 1000 to 10000 nM in the experiment on Target C [5]. In the experiment with MYB [6], the IC50 was 1000 to 10000 nM.
